These results are taken from patent publication US20070244076A1, “Site and Rate Selective Prodrug Formulations of D609 with Antioxidant and Anticancer Activity” (priority 2003, published 2007).

Data set [1] concerns STM91-01 malignant rhabdoid tumor cells. As to the kind of experiment: MTT cell viability, STM91-01 cells. The format is cell-based, human.
The test system of a further data set is U937 cells. As to the kind of experiment: MTT cell viability, U937 cells. Format: cell-based, Human. The settings on record: for LD50: 48 h. The protocol: Cell viability assay: The MTT assay was used to quantify viable U937 cells (Hansen et al., 1989). U937 cells were harvested, washed and resuspended in complete medium at a concentration of 5×10^5 cells per ml. Aliquots (100 μl) of the cell suspension were added to wells of a 96-well microtiter plate with the addition of 100 μl of complete medium (control) or various concentrations of D609 or a D609 prodrug (diluted in complete medium). After 48 h incubation, the plates were centrifuged to remove the supernatants from the culture, and 50 μl of MTT at a concentration of 5 mg/ml in phosphate-buffered saline (PBS) was added to each well. The plates were incubated for 4 h at 37° C. to allow for the formation of a colored formazan. The formazan was solubilized by lysing the cells with 100 μl of lysis buffer containing 20 (w/v) % dodecylsulfate and 50 (v/v) % N,N-dimethyl formamide, pH 4.7. Absorbance of the formazan was measured at 595 nm using a Vmax plate reader (Molecular Devices, Sunnyvale, Calif.). The viability of the cells was expressed as a percent of control calculated by the formula Ad/Ac×100, where Ad and Ac, represent the absorbance of drug-treated and untreated control cells, respectively, and expressed as a percentage of control.
In this study, p-nitrophenyl-phosphorylcholine (pNPP, 40 mM) was incubated with 2 U/ml phospholipase C (Type XI from B. cereus) in the presence or absence of various concentrations of inhibitors for 2 hrs at 37° C. The amount of the cleaved substrate pNPP was quantified by determination of the optical density at 410 nm using an ELISA reader. The results are expressed as percent of vehicle control and presented as means±SEM (n=3) (FIG. 9A). NBD-C6-ceramide and PC were incubated with U937 cell lysates containing 50 μg protein in the presence or absence of various concentrations of inhibitors for 30 min at 30° C. The formation of NBD-C6-sphingomyelin as analyzed by TLC and quantified by determination of the fluorescent intensity of NBD-C6-sphingomyelin using a phosphorimager. The results are expressed as percent of vehicle control (FIG. 9B). […]

Data set [2] deals with Jurkat T-cell leukemia cells. As to the kind of experiment: MTT cell viability, Jurkat cells. Format: cell-based, human.
Data set [3] relates to normal human diploid fibroblasts-WI38 cells. As to the kind of experiment: MTT cell viability, WI38 normal fibroblasts. Format: cell-based. The note with it: for LD50: normal cells.
The test system of data set [4] is ceramide levels in U937 cells. As to the kind of experiment: Ceramide profile in U937 cells by ESI/MS/MS. Format: cell-based, Human. The settings on record: for increase in the level of total ceramide compared to vehicle-treated cells: 177 μM; for C14-Cer / C16-Cer / C18-Cer / C20-Cer / C24-Cer / C24:1-Cer / Total-Cer / dhC16-Cer: 177 µM, 4 h. The method, then:
ESI/MS/MS analysis of ceramide was performed on a Thermo Finnigan TSQ 7000 triple quadruple mass spectrometer, operating in a multiple reaction monitoring (MRM) positive ionization mode. U937 cells (4×10^6/sample) were washed twice with PBS after they were harvested from cultures. […] An aliquot of the lipid extracts was taken for inorganic phosphate determination and the remainder was evaporated to dryness and reconstituted in 100 μL of methanol. The reconstituted samples were injected on the Surveyor/TSQ 7000 LC/MS system and gradient was eluted from the BDS Hypersil C8, 150×3.2 mm, 3 μm particle size column, with 1.0 mM methanolic ammonium formate/2 mM aqueous ammonium formate mobile phase system. Peaks for the target analytes and internal standards were collected and processed using the Xcalibur software system. Various species of ceramide were quantified using N-palmitoyl-D-erythro-sphingosine, C13 base (C13 ceramide) and N-heptadecanoyl-D-erythro-sphingosine, C18 base (C18 ceramide) as internal calibration standards. Calibration curves were constructed by plotting peak area ratios of synthetic standards corresponding to each target analyte with respect to the appropriate internal standard. The target analyte peak areas from the samples were similarly normalized to their respective internal standard then compared with the calibration curves using a linear regression model. The results are expressed as pmole ceramide/nmole lipid phosphate (Pi).

Data set [5] deals with sphingomyelin synthase (SMS). As to the kind of experiment: Cellular SMS activity in U937 cells treated with drug. The format is cell-based, Human. The note with it: for inhibition of SMS activity: 177 μM, 0.5, 1 and 2 h. The method, then: Analysis of sphingomyelin synthase (SMS) activity: U937 cells (2×10^6/ml) were cultured with vehicle (0.5% DMSO) or 177 μM D609 or prodrug 2. After 0.5, 1 and 2 h incubation, the cells were harvested, washed and then homogenized in ice-cold lysis buffer (250 mM sucrose; 5 mM HEPES, pH 7.4; 1 mM phenylmethylsulfonyl fluoride; and 20 μg/ml each of chymostatin, leupeptin, antipain, and pepstatin) by 15 passages through a 27-gauge×0.5-inch needle. The cell lysates were first centrifuged at 1000×g for 10 min at 4° C. to remove all the unbroken cells and nuclei. The resultant supernatants were quantified for protein concentration using the Bio-Rad protein assay reagent (Bio-Rad, Hercules, Calif.) and assayed for SMS activity as follows: aliquots of the cell lysates containing 50 μg protein were preincubated for 10 min at 30° C. in a total volume of 50 μl of incubation buffer (50 mM Tris-HCl, pH 7.4; 25 mM KCl; and 0.5 mM EDTA). The reaction was started by addition of 2 nmol NBD C6-ceramide and 12 nmol PC to give a final volume of 50 μl and incubated for 30 min. The reaction was stopped by addition of 200 μl chloroform/methanol (1:1, v/v); the mixture was vortexed and kept on ice. The chloroform/methanol fraction was isolated, and the lipids were resolved by TLC (silica gel) in chloroform:methanol:15 mM CaCl2 (90:52.5:12) (Luberto and Hannun, 1998; Meng et al., 2004). The formation of NBD-C6-sphingomyelin was quantified by determination of the fluorescent intensity of NBD-C6-sphingomyelin using a phosphoimager. Values for blanks were subtracted from total values of NBD-C6-sphingmyelin to yield the amount of NBD-C6-sphingmyelin produced in each sample.
To validate if inhibition of SMS may mediate D609-induced tumor cell death, the cellular level of SMS activity in U937 cells treated with vehicle or D609 were studied. […] NBD-C6-ceramide and PC were incubated with the cell lysates containing 50 μg proteins for 30 min at 30° C. The formation of NBD-C6-sphingomyelin was analyzed by TLC and quantified by determination of the fluorescent intensity of NBD-C6-sphingomyelin using a phosphoimager. The results, shown in FIGS. 10B-10D, are expressed as percent of the control cultures with vehicle and presented as means±SEM (n=3). […] The levels of ceramide (FIG. 10B) and DAG (FIG. 10C) were analyzed by the DAG kinase assay, normalized to the levels of cellular phospholipid and expressed as pmole/nmole phophate (pi) or the ratio of ceramide and DAG (FIG. 10D). The results represent means±SEM (n=3).

Marks after values point to notes of the source that are not given here.

By IC50 is commonly meant the concentration at which inhibition is half-maximal. Read a high IC50 as a need for much substance. `S=C([S-])OC1CC2CC1C1CCCC21.[K+]` (centres unmarked) [Prodrug D609, Tricyclodecan-9-yl-xanthogenate] showed an LD50 in data set [1] of 545.75 µM. This molecule also registered an LD50 with U937 cells of 117 µM. For the same molecule, the “U937 cell death / cell viability” value with U937 cells (48 hours) is “induced significant cell death”. In addition, the LD50 in data set [2] turned out to be 63.97 µM. Moreover, in data set [3] (48 hours), the cell viability entry is listed as “relatively resistant”. This molecule also had an LD50 in data set [3] of 267.51 µM. In addition, in data set [4], the “increase in the level of total ceramide compared to vehicle-treated cells” value is “about 1.61 fold”, the C14-Cer is 0.038^a pmole ceramide/nmole lipid Pi, the C16-Cer is reported as 1.612^a pmole ceramide/nmole lipid Pi and the C18-Cer is listed as 0.213^a pmole ceramide/nmole lipid Pi. In addition, in data set [4], the C20-Cer is given as 0.036^a pmole ceramide/nmole lipid Pi, the C24-Cer is given as 0.416 pmole ceramide/nmole lipid Pi, the “C24:1-Cer” value was 0.669^a pmole ceramide/nmole lipid Pi and the Total-Cer is listed as 3.816^a pmole ceramide/nmole lipid Pi. The dhC16-Cer in data set [4] is 0.832^a pmole ceramide/nmole lipid Pi. Moreover, the “inhibition of SMS activity” value in data set [5] is reported as “time-dependent inhibition of SMS activity”. Besides, in data set [5] (U937 cells cultured 2 hrs), the IC50 is roughly 90 µM and the “IC50, SMS activity” value is roughly 23.8 mg/L.

On to `CCCC(=O)OCSC(=S)OC1CC2CC1C1CCCC21` (centres unmarked) [Prodrug 2, S-methyleneoxybutyryl D609], for which the LD50 in data set [1] was found to be 87.10 µM. Moreover, the LD50 in the data set with U937 cells was 56.6 µM. Moreover, the LD50 in data set [2] is 44.26 µM. Besides, in data set [3], the LD50 was determined as 333.43 µM. Also, in data set [4], the “increase in the level of total ceramide compared to vehicle-treated cells” value turned out to be 1.84 fold, the C14-Cer was 0.054^a,b pmole ceramide/nmole lipid Pi, the C16-Cer is reported as 1.713^a pmole ceramide/nmole lipid Pi and the C18-Cer is on record as 0.262^a pmole ceramide/nmole lipid Pi. In addition, in data set [4], the C20-Cer is listed as 0.031^a pmole ceramide/nmole lipid Pi, the C24-Cer is 0.482^a pmole ceramide/nmole lipid Pi, the “C24:1-Cer” value is reported as 0.863^a,b pmole ceramide/nmole lipid Pi and the Total-Cer is 4.358^a,b pmole ceramide/nmole lipid Pi. In data set [4], the dhC16-Cer was 0.951^a,b pmole ceramide/nmole lipid Pi. The “inhibition of SMS activity” value in data set [5] is listed as “significantly greater”.
